Laboratory results from PMC5844868, “Increased intracellular activity of MP1102 and NZ2114 against Staphylococcus aureus in vitro and in vivo” (Scientific Reports, 2018).
Converted amounts (≈) assume the structure as drawn. Like-named read-outs stand apart in the source and are kept apart here. Peptide text beside a SMILES is read from it.

How the values were obtained:
[1] = tested on: virulent staphylococcal strains; conditions: relative efficacy; cited from earlier work
Source text: This study is the first evaluation of the intracellular anti-staphylococcal properties of the NZ2114 derivative MP1102 using both in vitro and in vivo methods. […] As a corresponding in vivo mouse model, RAW 264.7 macrophages were chosen to evaluate in vitro intracellular activity in this study.

[2] = tested on: IL-10; assay: Cytokine ELISA in S. aureus-infected RAW 264.7 cells; format: cell-based, mouse; conditions: 25 μg/ml, 24 h after treatment
Experimental: (§1) To investigate the effects of MP1102 and NZ2114 on cytokine levels in cells infected with S. aureus, RAW264.7 cells (2.5 × 10^5 cells/ml) seeded into 12-well plates were incubated with MRSA ATCC43300 (MOI = 100:1) for 30 min followed by treatment with 50 μg/ml lysostaphin for 1 h to remove non-phagocytosed bacteria. The cells were then treated with 25 μg/ml MP1102, NZ2114 and vancomycin for 12 h and 24 h. Cell-free culture supernatants were collected and the concentrations of cytokines (TNF-α, IL-1β and IL-10) were determined by Jiaxuan Biotech. Co. Ltd. (Beijing, China) using an ELISA kit[58],[59].

[3] = tested on: Virulent S. aureus CVCC546; assay: Extracellular dose-response in broth, 24 h; format: cell-based, Staphylococcus aureus
Experimental: (§2) Dose-response curves for the extracellular activities of the peptides were performed as previously described with some modifications[2],[14],[56],[57]. For extracellular activity, MSSA ATCC25923, MRSA ATCC43300 and high virulent S. aureus CVCC546 cells were adjusted to a density of 10^5 CFU/ml.
(§3) The Hill equation was used to analyze the dose-effect relationships of the intracellular and extracellular activities of MP1102 and NZ2114 against S. aureus. The Emax, Cs and goodness of fit (R^2) were calculated by non-linear regression using GraphPad Prism version 6 (GraphPad Prism Software, San Diego, CA, USA). The other statistical procedures, means and SEMs were performed and calculated using IBM SPSS Statistics 21.0.

[4] = tested on: MRSA ATCC43300; assay: Extracellular dose-response in broth, 24 h; format: cell-based, Staphylococcus aureus
Experimental: as §2, §3

[5] = tested on: MSSA ATCC25923; assay: Extracellular dose-response in broth, 24 h; format: cell-based, Staphylococcus aureus
Experimental: as §2, §3

[6] = tested on: MSSA ATCC25923; assay: MIC in MHB at pH 7.3 and 5.0; format: cell-based; conditions: Staphylococcus aureus
[7] = tested on: RAW 264.7 macrophages; format: cell-based, mouse; conditions: 24 h, MTT
Experimental: The cytotoxicity of MP1102 and NZ2114 was tested by a colorimetric 3-(4, 5-dimethyl-2-thiazolyl)-2, 5-diphenyl-2-H-tetrazolium bromide (MTT) assay. Cells were added into 96-well microtiter plates (2.5 × 10^4 cells/well) and incubated for 24 h. After another 24 h incubation with MP1102 and NZ2114 (1 to 256 μg/ml), MTT solution was added and incubated for 4 h. Followed the removing of the MTT, dimethyl sulfoxide (DMSO) (150 μl/well) was added and the absorbance was measured at 570 nm. Untreated cells were used as a control. The cell survival rate was calculated using the following formula: survival rate (%) = Abs570 nm of treated sample / Abs570 nm of control × 100. The cytotoxicity detection was repeated in triplicate.
118 were incubated with 1-256 μg/ml for 24 h and subsequently cell viability was determined using the MTT
119 assay. Results are means ± S.D. for three experiments.
(1 picture or pasted object on this page, not shown here)

[8] = tested on: MSSA ATCC25923 phagocytosed by RAW 264.7 macrophages; assay: Intracellular dose-response in RAW 264.7 macrophages, 24 h; format: cell-based, Staphylococcus aureus; conditions: Hill equation
Experimental: (§4) For intracellular activity, RAW 264.7 macrophages (2.5 × 10^5 cells/ml) were seeded into a 6-well plate (1.5 ml/well) and cultured for 24 h in DMEM with 10% FBS (without antibiotics). Meanwhile, mid-log phase S. aureus strains (MSSA ATCC25923, MRSA ATCC43300 and high virulent CVCC546) were collected by centrifugation, diluted to a concentration of 2.5 × 10^7 CFU/ml in DMEM with 10% FBS (without antibiotic), and incubated with RAW 264.7 macrophages (1.5 ml/well) for 0.5 h. In total, 100 μg/ml gentamicin (for MSSA ATCC25923) or 50 μg/ml lysostaphin (for MRSA ATCC43300 and virulent CVCC546) was added to the cells and incubated for 1 h to remove non-phagocytosed bacteria. […] The numbers of intracellular bacteria were measured at 0 h and 24 h using the above method.
as §3

[9] = tested on: Virulent S. aureus CVCC546 phagocytosed by RAW 264.7 macrophages; assay: as above; format: cell-based, Staphylococcus aureus
Experimental: as §4, §3

[10] = tested on: MRSA ATCC43300 phagocytosed by RAW 264.7 macrophages; assay: as above; format: cell-based, Staphylococcus aureus
Experimental: as §4, §3

[11] = tested on: MSSA ATCC25923; assay: Mouse peritonitis model; format: in vivo
Experimental: The mice were infected by peritoneal injection with different S. aureus strains, including MSSA ATCC25923 (5 × 10^8 CFU), MRSA ATCC43300 (5 × 10^8 CFU) and high virulent CVCC546 (5 × 10^7 CFU), and treated with a single dose of drugs ([…], 20, 30 and 40 mg/kg for ATCC43300 and CVCC546) at 10 min after infection. Twenty-four hours after treatment, the mice were killed and peritoneal fluids were obtained by washing with 5 ml ice-cold PBS. The total number of bacteria in the fluids was determined before any further procedures and then divided into two equal fractions of 1.5 ml each for the following purposes: i) for extracellular bacteria quantification, one fraction was centrifuged for 10 min at 4 °C (300 g) and the supernatant CFU count was quantified and ii) for intracellular bacteria quantification, the other fraction was centrifuged for 5 min at 4 °C (1,000 rpm). The cells were collected and treated with 100 μg/ml gentamicin (MSSA ATCC25923) or 50 μg/ml lysostaphin (MRSA ATCC43300 and high virulent CVCC546) for 1 h at 37 °C to kill extracellular bacteria. The cells were washed twice with ice-cold PBS to remove any anti-extracellular bacterial drug. Subsequently, the cells were lysed and counted as described above for the in vitro experiment method[14],[54].

[12] = tested on: MRSA ATCC43300; assay: MIC in MHB at pH 7.3 and 5.0; format: cell-based; conditions: Staphylococcus aureus
[13] = tested on: macrophages; conditions: at 24 h; cited from earlier work
Source text: Due to several limitations (including protein binding conditions and differences in the pharmacokinetics) in the in vitro macrophage intracellular model, an in vivo mouse peritonitis model was also examined to further evaluate the intracellular efficiency of MP1102 and NZ2114. The intracellular bacterial killing efficacy of MP1102 and NZ2114 was decreased in vivo compared to extracellular killing, though the difference was less than the in vitro model, which may be related to the complex in vivo environment weakening the antibacterial efficiency and the eradication of extracellular bacteri ...

[14] = tested on: high virulent S. aureus CVCC546; assay: Mouse peritonitis model; format: in vivo; conditions: 20 mg/kg, 24 h
Experimental: The mice were infected by peritoneal injection with different S. aureus strains, including MSSA ATCC25923 (5 × 10^8 CFU), MRSA ATCC43300 (5 × 10^8 CFU) and high virulent CVCC546 (5 × 10^7 CFU), and treated with a single dose of drugs (5 mg/kg for ATCC25923, 20, 30 and 40 mg/kg for ATCC43300 and CVCC546) at 10 min after infection. Twenty-four hours after treatment, the mice were killed and peritoneal fluids were obtained by washing with 5 ml ice-cold PBS. The total number of bacteria in the fluids was determined before any further procedures and then divided into two equal fractions of 1.5 ml each for the following purposes: i) for extracellular bacteria quantification, one fraction was centrifuged for 10 min at 4 °C (300 g) and the supernatant CFU count was quantified and ii) for intracellular bacteria quantification, the other fraction was centrifuged for 5 min at 4 °C (1,000 rpm). The cells were collected and treated with 100 μg/ml gentamicin (MSSA ATCC25923) or 50 μg/ml lysostaphin (MRSA ATCC43300 and high virulent CVCC546) for 1 h at 37 °C to kill extracellular bacteria. The cells were washed twice with ice-cold PBS to remove any anti-extracellular bacterial drug. Subsequently, the cells were lysed and counted as described above for the in vitro experiment method[14],[54].

[15] = tested on: IL-1β; assay: Cytokine ELISA in S. aureus-infected RAW 264.7 cells; format: cell-based, mouse; conditions: 25 μg/ml, 24 h after infection with MRSA ATCC43300; range over treatments
Experimental: as §1

[16] = Hill equation, 95% CI in brackets
[17] = change at 24 h from original inoculum, extrapolated, Hill equation
[18] = static concentration, graphical interpolation
[19] = Intracellular, Hill equation, 95% CI in brackets
[20] = Intracellular, change at 24 h from original inoculum, extrapolated, Hill equation

Compound: CC[C@H]1OC(=O)[C@H](C)[C@@H](O[C@H]2C[C@@](C)(OC)[C@@H](O)[C@H](C)O2)[C@H](C)[C@@H](O[C@@H]2O[C@H](C)C[C@H](N(C)C)[C@H]2O)[C@](C)(O)C[C@@H](C)CN(C)[C@H](C)[C@@H](O)[C@]1(C)O [azithromycin]
- Emax [1]: −0.5 log CFU

Compound: CN[C@H](CC(C)C)C(=O)N[C@H]1C(=O)N[C@@H](CC(N)=O)C(=O)N[C@H]2C(=O)N[C@H]3C(=O)N[C@H](C(=O)N[C@H](C(=O)O)c4cc(O)cc(O)c4-c4cc3ccc4O)[C@H](O)c3ccc(c(Cl)c3)Oc3cc2cc(c3O[C@@H]2O[C@H](CO)[C@@H](O)[C@H](O)[C@H]2O[C@H]2C[C@](C)(N)[C@H](O)[C@H](C)O2)Oc2ccc(cc2Cl)[C@H]1O [Vancomycin]
- IL-10 levels decreased by [2]: 12.0 pg/mL
- EC50 [3, 16]: 0.92 multiples of the MIC
- Emax (log CFU, 95% CI) [3, 17]: −5.85 log CFU
- Cs [3, 18]: ~1.10 multiples of the MIC
- EC50 [4, 16]: 5.40 multiples of the MIC
- Emax (log CFU, 95% CI) [4, 17]: −5.89 log CFU
- Cs [4, 18]: ~5.88 multiples of the MIC
- EC50 [5, 16]: 1.87 multiples of the MIC
- Emax (log CFU, 95% CI) [5, 17]: −5.37 log CFU
- Cs [5, 18]: ~1.48 multiples of the MIC
- MIC ([6]; pH 5, read-out: MICs): < 0.004 µg/mL
- MIC ([6]; pH 7.3, read-out: MICs): 0.125 µg/mL (≈ 0.0863 µM)
- survival rate ([7]; 128 μg/ml): 100%
- survival rate ([7]; 256 μg/ml): 85.9%
- EC50 ([8]; 95% CI in brackets): 24.29 multiples of the MIC
- Emax (log CFU, 95% CI) ([8]; change at 24 h from original inoculum, extrapolated to infinitely high concentration): −4.85 log CFU
- EC50 [9, 19]: 3.53 multiples of the MIC
- Emax (log CFU, 95% CI) [9, 20]: 0.46 log CFU
- resistant rates for the highest test concentrations compared to the untreated group ([9]; intracellular, 24 h): 99.68%
- EC50 [10, 19]: 1.10 multiples of the MIC
- Emax (log CFU, 95% CI) [10, 20]: 0.43 log CFU
- resistant rates for the highest test concentrations compared to the untreated group ([10]; intracellular, 24 h): 93.03%
- effect on bacterial load ([11]; 5 mg/kg, 24 h): no significant effects were observed
- MIC ([12]; pH 5, read-out: MICs): 1 µg/mL (≈ 0.69 µM)
- MIC ([12]; pH 7.3, read-out: MICs): 1 µg/mL (≈ 0.69 µM)
- accumulation in macrophages [13]: up to 8 fold
- log reduction, extracellular [14]: 4.9 log
- log reduction, intracellular [14]: 3.7 log
- log reduction, total [14]: 3.9 log

Compound: Cc1onc(-c2ccccc2)c1C(=O)N[C@@H]1C(=O)N2[C@@H]1SC(C)(C)[C@@H]2C(=O)O [oxacillin]
- Emax [1]: −0.68 log CFU

Compound: CC[C@H](C)[C@@H]1NC(=O)[C@H](CO)NC(=O)[C@H](CCCCN)NC(=O)[C@@H]2CSSC[C@@H](C(=O)N[C@@H](Cc3ccc(O)cc3)C(=O)O)NC(=O)[C@H](CCCCN)NC(=O)[C@@H]3CSSC[C@H](NC(=O)[C@H](CCCCN)NC(=O)[C@H](C(C)C)NC(=O)[C@H](CC(=O)O)NC(=O)[C@H](CC(=O)O)NC(=O)[C@H](CCC(=O)O)NC(=O)[C@H](CCC(=O)O)NC(=O)[C@H](Cc4c[nH]c5ccccc45)NC(=O)[C@@H]4CCCN4C(=O)CNC(=O)[C@H](CC(N)=O)NC(=O)[C@@H](NC(=O)CNC(=O)[C@H](Cc4ccccc4)NC(=O)CN)CSSC[C@H](NC(=O)[C@H](Cc4ccc(O)cc4)NC(=O)CNC(=O)CNC(=O)[C@H](CCCCN)NC(=O)[C@H](Cc4ccc(O)cc4)NC(=O)CNC(=O)[C@H](CCCCN)NC1=O)C(=O)N[C@@H](C)C(=O)N[C@@H](CCCCN)C(=O)NCC(=O)NCC(=O)N[C@@H](Cc1ccccc1)C(=O)N[C@@H](C(C)C)C(=O)N3)C(=O)N[C@@H](Cc1c[nH]cn1)C(=O)N[C@@H](CC(N)=O)C(=O)N[C@@H](Cc1c[nH]cn1)C(=O)N2 [MP1102] (HELM PEPTIDE1{G.F.G.C.N.G.P.W.E.E.D.D.V.K.C.H.N.H.C.K.S.I.K.G.Y.K.G.G.Y.C.A.K.G.G.F.V.C.K.C.Y}$PEPTIDE1,PEPTIDE1,4:R3-30:R3|PEPTIDE1,PEPTIDE1,15:R3-37:R3|PEPTIDE1,PEPTIDE1,19:R3-39:R3$$$V2.0; N-terminus and C-terminus assumed; bridges inferred)
- suppressed production of IL-1β [15]: 18.7 to 49.5 pg/mL
- IL-10 level change, in contrast to the decrease with NZ2114 and vancomycin [2]: 4.8 pg/mL
- colonies on the plates ([11]; 20 mg/kg and 10 mg/kg dose, data not shown): no colonies were observed

Compound: C[C@@H](O)[C@H]1C(=O)N2C(C(=O)O)=C(SCCN=CN)C[C@H]12 [imipenem]
- Emax [1]: −0.9 log CFU
